The text below walks through data of US20230355622A1, “METHODS OF CHEMOVACCINATION AGAINST PLASMODIUM INFECTIONS” (Merck Sharp & Dohme LLC, priority 2020, published 2023).

Molecules are shown by their SMILES.

The test system of the first assay is parasite. The assay can be described thus: Parasite LDH growth assay (Parasite Assay), antiparasite potency. It counts as cell-based. Conditions: 72 h, parasite LDH growth assay, ring stage parasites, 72 hours incubation at 37° C.; read-out: EC50. The method, then:
Assessing Antiparasite Potency in a Parasite LDH Growth Assay (Parasite Assay)
The parasite stock was maintained at 4% haematocrit in RPMI-Hepes media buffered with sodium bicarbonate and supplemented with 5% heat inactivated human serum and 0.5% albumax.
On the day of assay set up, a blood smear of the parasite culture was Giemsa stained and counted. The parasitemia was adjusted to 0.7% rings and the haematocrit was diluted to 2% in RPMI-Hepes media buffered with sodium bicarbonate and supplemented with 5% heat inactivated human serum and 0.5% albumax. 30 ul of diluted parasites are then added into 10 ul of media+compound in pre-prepared Greiner TC assay plates. Parasite assay plates were placed in gassed humidified boxes in single layer and allowed to incubate at 37° C. for 72 hours. After 72 hours growth, assay plates are sealed with parafilm and frozen flat, in single file at −80° C. overnight. On the following day, assay plates are allowed to thaw at room temperature for 4 hours to which an LDH assay is performed to measure parasite growth.
Take `C[C@@H]1C[C@@H](N2C(=N)NC(C)(C)CC2=O)c2cc(C(=O)N[C@@H]3c4ccccc4OC[C@@]3(C)O)ccc21` [Example 104, (1R,3R)-N-[(3S,4R)-3-hydroxy-3-methyl-chroman-4-yl]-3-(2-imino-4,4-dimethyl-6-oxo-hexahydropyrimidin-1-yl)-1-methyl-indane-5-carboxamide]: the EC50 was 5 nM.

For the compound `CCC1(CC)CC(=O)N([C@@H]2CC3(COC3)Oc3ccc(C(=O)N[C@H]4CC(C)(C)Oc5ccccc54)cc32)C(=N)N1` [Example 22A, (R)-4-(4,4-diethyl-2-imino-6-oxotetrahydropyrimidin-1(2H)-yl)-N-((S)-2,2-dimethylchroman-4-yl)spiro[chromane-2,3′-oxetane]-6-carboxamide], the EC50 turned out to be 0.7 nM.

In the case of `C[C@@H]1C[C@@H](N2C(=N)NC(C)(C)CC2=O)c2cc(C(=O)N[C@@H]3c4ccccc4OC(C)(C)[C@H]3O)ccc21` [Example 138, (1R,3R)-N-[(3S,4R)-3-hydroxy-2,2-dimethyl-chroman-4-yl]-3-(2-imino-4,4-dimethyl-6-oxo-hexahydropyrimidin-1-yl)-1-methyl-indane-5-carboxamide], the EC50 is 0.9 nM.

On to `C[C@@H]1Cc2ccc(C(=O)N[C@@H]3c4ccccc4OC(C)(C)[C@H]3O)cc2[C@@H]1N1C(=N)NC(C)(C)CC1=O` [Example 135, (2R,3R)-N-[(3S,4R)-3-hydroxy-2,2-dimethyl-chroman-4-yl]-3-(2-imino-4,4-dimethyl-6-oxo-hexahydropyrimidin-1-yl)-2-methyl-indane-5-carboxamide], for which the EC50 came to 0.9 nM.

As to `COC1COc2ccc(C(=O)N[C@@H]3c4ccccc4OC[C@@]3(C)O)cc2C1N1C(=N)NC(C)(C)CC1=O` (stereo partly drawn) [Example 186, N-[(3S,4R)-3-hydroxy-3-methyl-chroman-4-yl]-4-(2-imino-4,4-dimethyl-6-oxo-hexahydropyrimidin-1-yl)-3-methoxy-chromane-6-carboxamide], the EC50 is 70 nM.

On to `CCC1(CC)CC(=O)N([C@@H]2CCc3ccc(C(=O)N[C@@H]4c5ccccc5OC(C)(C)[C@H]4O)cc32)C(=N)N1` [Example 159, (3R)-3-(4,4-diethyl-2-imino-6-oxo-hexahydropyrimidin-1-yl)-N-[(3S,4R)-3-hydroxy-2,2-dimethyl-chroman-4-yl]indane-5-carboxamide], for which the EC50 came to 0.5 nM.

On to `CCC1(CC)CC(=O)N([C@@H]2CCOc3ccc(C(=O)NC(c4ccccc4)c4ccccc4)cc32)C(=N)N1` [Example 194, (4R)-N-benzhydryl-4-(4,4-diethyl-2-imino-6-oxo-hexahydropyrimidin-1-yl)chromane-6-carboxamide], for which the EC50 came out at 0.9 nM.

On to `CCC1(CC)CC(=O)N([C@@H]2CC(COC)Oc3ccc(C(=O)N[C@@H]4c5ccccc5OC(C)(C)[C@H]4O)cc32)C(=N)N1` (stereo partly drawn) [Example 18A, (4R)-4-(4,4-diethyl-2-imino-6-oxotetrahydropyrimidin-1(2H)-yl)-N-((3S,4R)-3-hydroxy-2,2-dimethylchroman-4-yl)-2-(methoxymethyl)chromane-6-carboxamide], for which the EC50 worked out at 0.8 nM.

As for `CCC1(CC)CC(=O)N([C@@H]2C[C@@H](OC)c3ccc(C(=O)N[C@@H]4c5ccccc5OC[C@@]4(C)O)cc32)C(=N)N1` [Example 203, (1R,3R)-3-(4,4-diethyl-2-imino-6-oxo-hexahydropyrimidin-1-yl)-N-[(3S,4R)-3-hydroxy-3-methyl-chroman-4-yl]-1-methoxy-indane-5-carboxamide], the EC50 came out at 5.9 nM.

For `CCC1(CC)CC(=O)N([C@H]2c3cc(C(=O)N[C@@H]4c5ccccc5OC(C)(C)[C@H]4O)ccc3OC[C@H]2C)C(=N)N1` [Example 241, (3S,4R)-4-(4,4-diethyl-2-imino-6-oxo-hexahydropyrimidin-1-yl)-N-[(3S,4R)-3-hydroxy-2,2-dimethyl-chroman-4-yl]-3-methyl-chromane-6-carboxamide], the EC50 was 0.4 nM.

For the compound `CCC1(CC)CC(=O)N([C@@H]2C[C@H](OC)c3ccc(C(=O)N[C@@H]4c5ccccc5C[C@@]4(C)O)cc32)C(=N)N1` [Example 158, (1S,3R)-3-(4,4-diethyl-2-imino-6-oxo-hexahydropyrimidin-1-yl)-N-[(1R,2R)-2-hydroxy-2-methyl-indan-1-yl]-1-methoxy-indane-5-carboxamide], the EC50 was 0.9 nM.

`CCC1(CC)CC(=O)N([C@@H]2CCOc3ccc(C(=O)N[C@H]4CC(C)(C)Oc5ccc(C#N)cc54)cc32)C(=N)N1` [Example 21A, (R)-N-((S)-6-cyano-2,2-dimethylchroman-4-yl)-4-(4,4-diethyl-2-imino-6-oxotetrahydropyrimidin-1(2H)-yl)chromane-6-carboxamide]: the EC50 is 0.8 nM.

As for `CCC1(CC)CC(=O)N([C@@H]2C[C@@H](OC)c3ccc(C(=O)N[C@@H]4c5ccccc5OC(C)(C)[C@H]4O)cc32)C(=N)N1` [Example 236, (1R,3R)-3-(4,4-diethyl-2-imino-6-oxo-hexahydropyrimidin-1-yl)-N-[(3S,4R)-3-hydroxy-2,2-dimethyl-chroman-4-yl]-1-methoxy-indane-5-carboxamide], the EC50 amounted to 0.9 nM.

As to `CCC1(CC)CC(=O)N([C@@H]2CCOc3ccc(C(=O)N[C@@H](C)c4ccccc4OC)cc32)C(=N)N1` [Example 111, (4R)-4-(4,4-diethyl-2-imino-6-oxo-hexahydropyrimidin-1-yl)-N-[(1S)-1-(2-methoxyphenyl)ethyl]chromane-6-carboxamide], the EC50 turned out to be 90 nM.

The assay is the same for the next values; noted with them: parasite LDH growth assay, ring stage parasites, 72 hours incubation at 37° C.; read-out: EC50.
As for `CCC1(CC)CC(=O)N([C@@H]2CCS(=O)(=O)c3ccc(C(=O)N[C@H]4CC(C)(C)Oc5ccccc54)cc32)C(=N)N1` [Example 289, (4R)-4-(4,4-diethyl-2-imino-6-oxo-hexahydropyrimidin-1-yl)-N-[(4S)-2,2-dimethylchroman-4-yl]-1,1-dioxo-3,4-dihydro-2H-thiochromene-6-carboxamide], the EC50 was 0.6 nM.

`CC[C@]1(C)CC(=O)N([C@@H]2CCOc3ccc(C(=O)NC4c5c(F)cccc5OCC4(C)O)cc32)C(=N)N1` (stereo partly drawn) [Example 193B, (4R)-4-[(4R)-4-ethyl-2-imino-4-methyl-6-oxo-hexahydropyrimidin-1-yl]-N-(5-fluoro-3-hydroxy-3-methyl-chroman-4-yl)chromane-6-carboxamide]: the EC50 stood at 0.8 nM.

In the case of `CCC1(CC)CC(=O)N([C@@H]2CCOc3ccc(C(=O)NC4c5cc(F)ccc5OCC4(C)O)cc32)C(=N)N1` (stereo partly drawn) [Example 226D, (4R)-4-(4,4-diethyl-2-imino-6-oxo-hexahydropyrimidin-1-yl)-N-(6-fluoro-3-hydroxy-3-methyl-chroman-4-yl)chromane-6-carboxamide], the EC50 came to 1 nM.

For the compound `CCC1(CC)CC(=O)N([C@H]2c3cc(C(=O)N[C@H]4CC(C)(C)Oc5ccccc54)ccc3OC2(C)COC)C(=N)N1` (stereo partly drawn) [Example 74A, (2S,3S)-3-(4,4-diethyl-2-imino-6-oxotetrahydropyrimidin-1(2H)-yl)-N-((S)-2,2-dimethylchroman-4-yl)-2-(methoxymethyl)-2-methyl-2,3-dihydrobenzofuran-5-carboxamide], the EC50 amounted to 0.3 nM.

With `CCC1(CC)CC(=O)N(C2c3cc(C(=O)N[C@@H]4c5ccccc5OC(C)(C)[C@H]4O)ccc3CC2OC)C(=N)N1` (single isomer, unassigned) [Example 251A], the EC50 came to 0.4 nM.

For orientation: EC50 means the concentration needed to bring the measured effect to its halfway point.
